Test results as given in US4002530A, “6-Aminopenicillanic acid derivative” (Recherche et Industrie Therapeutiques (R.I.T.), priority 1975, dated 1977).
In brackets after ≈: the same amount, converted by molar mass. Read-outs that look alike come from different tables or passages of the source.

Key:
E. coli Pen. resistant = assay: broth dilution test, minimum inhibitory concentration; format: cell-based; details: Escherichia coli, penicillin resistant, about 20 hours at 35° C, tested as monoammonium salt
Pseudomonas aeruginosa = assay: as above; format: cell-based; details: about 20 hours at 35° C, tested as monoammonium salt
Bacillus subtilis = assay: as above; format: cell-based; details: about 20 hours at 35° C, tested as monoammonium salt
Proteus mirabilis = assay: as above; format: cell-based; details: read-out: Minimum Inhibitory concentration
[1] = test system: Staphylococcus aureus Pen.resist.; assay: as above; format: cell-based; details: penicillin resistant, about 20 hours at 35° C, tested as monoammonium salt
Proteus morganii = assay: as above; format: cell-based; details: Morganella morganii, about 20 hours at 35° C, tested as monoammonium salt
Salmonella paratyphi = assay: as above; format: cell-based; details: Salmonella enterica, 20 h, read-out: Minimum Inhibitory concentration
Klebsiella pneumoniae = assay: as above; format: cell-based; details: about 20 hours at 35° C, tested as monoammonium salt
Escherichia coli = assay: as above; format: cell-based; details: read-out: Minimum Inhibitory concentration
Staphylococcus aureus = assay: as above; format: cell-based; details: about 20 hours at 35° C, tested as monoammonium salt
Experimental: (§1) Antibiotic RIT D-2214 has been tested in form of the mono ammonium salt in position 3 of the penam nucleus and, for that reason, is herein below charcterized as this monoammonium salt.
(§2) The inhibitory levels were determined by the broth dilution test. A series of tubes containing varied concentrations of the monoammonium salt of antibiotic RIT D-2214 were inoculated with the test organism to determine the minimum concentration of the ammonium salt of antibiotic RIT D-2214 in mcg/ml. in the broth substrate which inhibited organism growth for a period of about twenty hours at 35° C.

Shigella sonnei = assay: as above; format: cell-based; details: about 20 hours at 35° C, tested as monoammonium salt
Experimental: as §1, §2

Aerobacter aerogenes = assay: as above; format: cell-based; details: Klebsiella aerogenes, read-out: Minimum Inhibitory concentration
in vivo [2] = assay: in vivo; set-up: species or system mice; details: mouse, sc, 20 mg/kg
Description: (§3) Plasma samples were adequately diluted with sterile water and assayed according to the usual agar diffusion method, using Bacillus subtilis ATCC 6633 as the test organism.

Corynebacterium xerosis = assay: broth dilution test, minimum inhibitory concentration; format: cell-based; details: about 20 hours at 35° C, tested as monoammonium salt
[3] = test system: Gram-positive and Gram-negative bacteria; assay: inhibitory activity against growth of bacteria; format: cell-based; details: Gram-positive and Gram-negative bacteria
Experimental: as §1, §2

Brucella abortus = assay: microbe, parasite or virus in culture; format: cell-based; details: 20 h, read-out: Minimum Inhibitory concentration
in vivo [4] = assay: in vivo; set-up: species or system rats; details: rat, sc, 20 mg/kg
Description: as §3

[5] = test system: Klebsiella pneumoniae SK&F 4200; assay: mice protection test; format: in vivo; details: 72 h, one hour after intravenous infection, observed 3 days, read-out: ED50 (total dose required to protect 50% of the infected mice)
Experimental: (§4) Comparative trials with ampicillin were performed in vivo according to the usual mice protection test procedure. The test compound was administered in graded dilutions to mice either subcutaneously (s.c.) in water or orally (or.) in combination with calcium carbonate one hour after intravenous infection with uniformly lethal doses of the test organism.

[6] = test system: Salmonella enteritidis 24; assay: mice protection test; format: in vivo; details: Salmonella enterica, sc, 72 h, s.c., one hour after intravenous infection, observed 3 days, read-out: ED50 (total dose required to protect 50% of the infected mice)
Experimental: as §4

Shigella flexneri 25 = assay: mice protection test; format: in vivo; details: Shigella flexneri, 25, sc, 72 h; s.c., one hour after intravenous infection, observed 3 days; read-out: ED50 (total dose required to protect 50% of the infected mice)
Experimental: as §4

Proteus mirabilis 11 = assay: mice protection test; format: in vivo; details: Proteus mirabilis, 11, sc, 72 h; s.c., one hour after intravenous infection, observed 3 days; read-out: ED50 (total dose required to protect 50% of the infected mice)
Experimental: as §4

[7] = test system: Staphylococcus aureus 663; assay: mice protection test; format: in vivo; details: Staphylococcus aureus, 663, sc, 72 h; s.c., one hour after intravenous infection, observed 3 days; read-out: ED50 (total dose required to protect 50% of the infected mice)
Experimental: as §4

Escherichia coli 47 = assay: mice protection test; format: in vivo; details: Escherichia coli, 47, sc, 72 h; s.c., one hour after intravenous infection, observed 3 days; read-out: ED50 (total dose required to protect 50% of the infected mice)
Experimental: as §4

Salmonella panama 20 = assay: mice protection test; format: in vivo; details: Salmonella enterica, 20, sc, 72 h; s.c., one hour after intravenous infection, observed 3 days; read-out: ED50 (total dose required to protect 50% of the infected mice)
Experimental: as §4

Escherichia coli 9 = assay: mice protection test; format: in vivo; details: Escherichia coli, 9, sc, 72 h; s.c., one hour after intravenous infection, observed 3 days; read-out: ED50 (total dose required to protect 50% of the infected mice)
Experimental: as §4

[8] = test system: Salmonella brandebourg 22; assay: mice protection test; format: in vivo; details: Salmonella, 22, sc, 72 h; s.c., one hour after intravenous infection, observed 3 days; read-out: ED50 (total dose required to protect 50% of the infected mice)
Experimental: as §4

[9] = test system: Vibrio parahaemoliticus 194; assay: mice protection test; format: in vivo; details: Vibrio, 194, 72 h; oral with calcium carbonate, one hour after intravenous infection, observed 3 days; read-out: ED50 (total dose required to protect 50% of the infected mice)
Experimental: as §4

Alcaligenes faecalis = assay: broth dilution test, minimum inhibitory concentration; format: cell-based; details: about 20 hours at 35° C, tested as monoammonium salt
Vibrio el tor = assay: as above; format: cell-based; details: about 20 hours at 35° C, tested as monoammonium salt
[10] = test system: Staphylococcal preparation of β-lactamase; assay: destruction by Staphylococcal preparation of β-lactamase (Penase Leo); format: biochemical
Salmonella typhimurium = assay: broth dilution test, minimum inhibitory concentration; format: cell-based; details: Salmonella enterica, about 20 hours at 35° C, tested as monoammonium salt
[11] = test system: Gram-positive and Gram-negative microorganisms; assay: in vivo activity against microorganisms; set-up: species or system mice
Experimental: as §4

Salmonella meleagridis = assay: broth dilution test, minimum inhibitory concentration; format: cell-based; details: about 20 hours at 35° C, tested as monoammonium salt
[12] = test system: Bordetella bronchiseptica; assay: as above; format: cell-based; details: about 20 hours at 35° C, tested as monoammonium salt
[13] = stability in water solution; format: physicochemical; details: 4° C, not more than 7 days
physchem = format: physicochemical; details: for half-life: reconstituted gastric juice, pH 1.3
Description: Antibiotic RIT D-2214 can be colorimetrically assayed by the classical hydroxylamine method of penicillin assay. […] Recoveries were estimated according to the hydroxylamine assay method.

Alcaligenes viscolactis = assay: agar-diffusion method; format: cell-based
Description: The testing of samples can be carried out by the well known agar-diffusion method on Petri dishes or on plates.

in vivo [14] = assay: in vivo; set-up: species or system dogs; details: dog, sc, 20 mg/kg
Description: as §3

Salmonella panama = assay: broth dilution test, minimum inhibitory concentration; format: cell-based; details: Salmonella enterica, about 20 hours at 35° C, tested as monoammonium salt
Salmonella anatum = assay: as above; format: cell-based; details: Salmonella enterica, about 20 hours at 35° C, tested as monoammonium salt
Salmonella typhi = assay: as above; format: cell-based; details: Salmonella enterica, 20 h, read-out: Minimum Inhibitory concentration
solubility = format: physicochemical
mice = details: mouse, in vivo, iv, 500 mg/kg
[15] = broth dilution, about 20 hours at 35° C, tested as monoammonium salt

## CC1(C)S[C@@H]2[C@H](NC(=O)CSC[C@H](N)C(=O)O)C(=O)N2[C@H]1C(=O)O [RIT L-2214]
E. coli Pen. resistant
  MIC: 80 µg/mL
Pseudomonas aeruginosa
  MIC: 80 µg/mL
Bacillus subtilis
  MIC: 0.31 µg/mL
Proteus mirabilis; [15]
  MIC: 20 µg/mL
[1]
  MIC: 80 µg/mL
Proteus morganii
  MIC: 80 µg/mL
Salmonella paratyphi
  MIC: 20 µg/mL (≈ 53 µM)
Klebsiella pneumoniae
  MIC: 80 µg/mL
Escherichia coli; [15]
  MIC: 40 µg/mL
Staphylococcus aureus
  MIC: 1.25 µg/mL
Shigella sonnei
  MIC: 80 µg/mL
Aerobacter aerogenes; [15]
  MIC: 20 µg/mL

## CC1(C)S[C@@H]2[C@H](NC(=O)CSC[C@@H](N)C(=O)O)C(=O)N2[C@H]1C(=O)O [RIT D-2214, 6-(D)-{[(2-amino-2-carboxy)-ethylthio]-acetamido}-penicillanic acid]
In vivo [2]
  concentration at 5 min: 13000 ng/mL
  concentration at 0.25 h: 15000 ng/mL
  concentration at 0.5 h: 10000 ng/mL
  concentration at 1 h: 6000 ng/mL
Corynebacterium xerosis
  MIC: < 0.02 µg/mL
E. coli Pen. resistant
  MIC: 80 µg/mL
Pseudomonas aeruginosa
  MIC: 80 µg/mL
[3]
  inhibitory activity against the growth of bacteria: exhibits inhibitory activity
Brucella abortus
  MIC: 20 µg/mL (≈ 53 µM)
In vivo [4]
  concentration at 5 min: 12000 ng/mL
  concentration at 0.25 h: 23000 ng/mL
  concentration at 0.5 h: 17000 ng/mL
  concentration at 1 h: 12000 ng/mL
  concentration at 2 h: 7500 ng/mL
Bacillus subtilis
  MIC: 0.3 µg/mL
Proteus mirabilis; 20 h
  MIC: 1.25 µg/mL (≈ 3.31 µM)
[1]
  MIC: 80 µg/mL
[5]; oral with calcium carbonate
  ED50: 25.3 mg/kg
[5]; sc, s.c.
  ED50: < 11 mg/kg
[6]
  ED50: 13.5 mg/kg
Shigella flexneri 25
  ED50: 52.5 mg/kg
Proteus mirabilis 11
  ED50: < 10 mg/kg
[7]
  ED50: < 11 mg/kg
Escherichia coli 47
  ED50: < 10 mg/kg
Salmonella panama 20
  ED50: < 10 mg/kg
Escherichia coli 9
  ED50: 10.9 mg/kg
[8]
  ED50: 13 mg/kg
[9]
  ED50: 22.7 mg/kg
Alcaligenes faecalis
  MIC: 1.6 µg/mL
Proteus morganii
  MIC: 40 µg/mL
Salmonella paratyphi
  MIC: 1.25 µg/mL (≈ 3.31 µM)
Vibrio el tor
  MIC: 0.6 µg/mL
[10]
  destruction by β-lactamase: rapidly destroyed
Salmonella typhimurium
  MIC: 40 µg/mL
[11]; Gram-positive and Gram-negative microorganisms
  in vivo activity: exhibits in vivo activity
[11]; oral
  efficacy when administered orally: less advantageous when administered orally
Salmonella meleagridis
  MIC: 0.6 µg/mL
[12]
  MIC: 0.6 µg/mL
[13]
  stability in water solution: relatively stable
physchem
  stability under acid conditions: relatively stable under acid conditions
  half-life: 25 min
Klebsiella pneumoniae
  MIC: 80 µg/mL
Alcaligenes viscolactis
  sensitivity of Alcaligenes viscolactis: very high sensitivity
Escherichia coli; 20 h
  MIC: 1.25 µg/mL (≈ 3.31 µM)
In vivo [14]
  concentration at 0.25 h: 18000 ng/mL
  concentration at 0.5 h: 23000 ng/mL
  concentration at 1 h: 22500 ng/mL
  concentration at 2 h: 9000 ng/mL
Staphylococcus aureus
  MIC: 1.25 µg/mL
Shigella sonnei
  MIC: 20 µg/mL
Salmonella panama
  MIC: 40 µg/mL
Aerobacter aerogenes; 20 h
  MIC: 1.25 µg/mL (≈ 3.31 µM)
Salmonella anatum
  MIC: 0.6 µg/mL
Salmonella typhi
  MIC: 0.6 µg/mL (≈ 1.59 µM)

## CC1(C)S[C@@H]2[C@H](NC(=O)Cc3ccccc3)C(=O)N2[C@H]1C(=O)O [penicillin G, reference compound]
physchem
  half-life: 7 min

## CC1(C)S[C@@H]2[C@H](NC(=O)CSC[C@@H](N)C(=O)O)C(=O)N2[C@H]1C(=O)O
solubility; methanol
  solubility in methanol: slightly soluble in methanol
solubility; organic solvents other than methanol
  solubility in other organic solvents: insoluble in other organic solvents
solubility; water
  solubility in water: very soluble in water
mice
  detectable toxicity: does not show any detectable toxicity
